Assay results from patent US20110135742A1, “CONTROLLED RELEASE ENCAPSULATED ANTI-BACTERIAL AND ANTI-INFLAMMATORY NANOPARTICLES” (The Regents of the University of California, priority 2006, published 2011).

How the values were obtained:
[1] = recorded, background statement; cited from earlier work
P. acnes [2] = test: CFU assay against P. acnes; assay type: cell-based; conditions: FIG. 4
IL-12p40 = test: P. acnes stimulated IL-12p40 production by primary human monocytes; assay type: cell-based; conditions: primary human monocytes stimulated with P. acnes; dilutions 1, 10^-1, 10^-2; FIG. 5
eukaryotic cells = test: MTT assay; assay type: cell-based; conditions: FIG. 6
P. acnes [3] = test: Scanning electron microscopy of P. acnes; assay type: cell-based; conditions: FIG. 7

| Compound | success as acne medication [1] | killing of P. acnes, benzoyl peroxide un-encapsulated or nanoparticle encapsulated (P. acnes [2]) | inhibition of IL-12p40 production (IL-12p40) | toxicity to eukaryotic cells (eukaryotic cells) | physical changes in the bacteria, compared with control (P. acnes [3]) |
| --- | --- | --- | --- | --- | --- |
| CC1=C(/C=C/C(C)=C/C=C/C(C)=C\C(=O)O)C(C)(C)CCC1 [Isotretinoin] | 80-90% |  |  |  |  |
| O=C(OOC(=O)c1ccccc1)c1ccccc1 [benzoyl peroxide] |  | kills bacteria | inhibited | not toxic | destroy the bacteria and kill P. acnes |
